This note sets out measurements from publication PMC5642494 (Oncotarget, 2017).

Assay [1] relates to MDA-MB-361 cells. Put plainly: Annexin V/PI flow cytometry, MDA-MB-361. In kind it is cell-based, human. Conditions: 3 DT (untreated 45.7%). On the procedure: Annexin V/PI staining was performed following the vendor’s specifications in MCF7 and MDA-MB-361 cells. […] Raw data were analyzed with FlowJo X software. Events were gated for debris exclusion and singlets selection. A minimum of 10,000 cells were analyzed per sample.

The test system of assay [2] is H3K9me3. Put plainly: Hypermethylation of histone H3 at lysine 9 (H3K9me3), EFM-19. Conditions: 2 DT, n = 1, read-out: EC50 H3K9me3 levels. In kind it is cell-based, human. On the procedure: Relative IC50/EC50 values were determined by curve fitting to a four parameter logistic equation: Y = bottom + ((top-bottom)/ (1+exp(HillSlope*(X – LnIC50)), where X is the natural log of dose/concentration, Y is response, decreasing as X increases, top and bottom are plateaus in the same units as Y, lnIC50 is the natural log of potency, in the same log units as X, and HillSlope measures the steepness of the curve. Data were plotted using GraphPad Prism.
BioResearch) where indicated; the dates of acquisition and in an Acumen Explorer Ex3 (TTP Labtech), raw data testing are listed in parentheses: ZR-75-1; T-47D; MDA- were analyzed with Cellista software and then further MB-468; HCC70; BT-549; BT-20; MDA-MB-231; MDA- normalized in Excel against the values obtained for cells MB-175-VII, HCC-1937; MDA-MB-415. treated with 2 µM BEZ235, or vehicle (0.2% v/v DMSO); data were graphed using GraphPad Prism®. Images were SA-β-galactosidase immunocytochemical labeling taken by fluorescent microscopy using a Leica DMiL. […]
SA-β-gal Cell samples were lysed after treatment with expression was determined using the Senescence Cells 100 µL lysis buffer and transferred to a 96-well plate. […]
(BSA) (Invitrogen #15260-037) for 1 hour at 25°C. EdU Samples were analyzed by LC─MS/MS under the detection was performed using the Click-iT High Content conditions described below. […]

pEC50: −log10 of the molar value. Like-named read-outs stand apart in the source and are kept apart here.

Regarding `CCN1CCN(Cc2ccc(Nc3ncc(F)c(-c4cc(F)c5nc(C)n(C(C)C)c5c4)n3)nc2)CC1` [abemaciclib, Abemaciclib], the figures for the “cells positive for annexin V” value in assay [1] (0.5 µM) and in assay [1] (2 µM) were 84.6% and 88.8%, respectively. The pEC50 in assay [2] (EFM-19) was 7.64; in assay [2] (Homo sapiens, EFM-19, EFM-19) it was 7.64.
